From the kinase profiling compilation of Christmann-Franck et al. (2016)

Columns and labels:
Assay in all cases: radiometric filter-binding kinase assay, Kinase HotSpot
Settings in all cases: compound 0.5 µM; ATP 10 µM
AURKB (human) = AURKB (human) (UniProt Q96GD4)
AXL (human) = AXL (human) (UniProt P30530)
CAMK1G (human) = CAMK1G (human) (UniProt Q96NX5)
CDK9 CCNK (human) = CDK9 CCNK (human) (UniProt O75909+P50750)
CDK9 CCNT1 (human) = CDK9 CCNT1 (human) (UniProt P50750+O60563)
CLK1 (human) = CLK1 (human) (UniProt P49759)
CLK1 (human), sequence (P49759 whole entry, looked up): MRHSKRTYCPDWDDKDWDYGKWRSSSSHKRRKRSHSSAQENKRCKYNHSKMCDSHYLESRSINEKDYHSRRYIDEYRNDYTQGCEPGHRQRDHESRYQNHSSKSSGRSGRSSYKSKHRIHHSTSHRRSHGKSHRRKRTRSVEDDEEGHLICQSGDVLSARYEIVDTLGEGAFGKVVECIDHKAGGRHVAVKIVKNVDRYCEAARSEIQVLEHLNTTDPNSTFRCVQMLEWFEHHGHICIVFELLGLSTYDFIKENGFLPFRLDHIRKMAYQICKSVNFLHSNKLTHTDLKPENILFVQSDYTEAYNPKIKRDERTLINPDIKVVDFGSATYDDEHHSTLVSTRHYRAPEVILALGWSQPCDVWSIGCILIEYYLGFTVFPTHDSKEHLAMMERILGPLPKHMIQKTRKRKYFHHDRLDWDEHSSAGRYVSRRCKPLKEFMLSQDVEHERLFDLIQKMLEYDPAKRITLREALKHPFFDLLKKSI

CSNK1E (human) = CSNK1E (human) (UniProt P49674)
CSNK1E (human), sequence (P49674 whole entry, looked up): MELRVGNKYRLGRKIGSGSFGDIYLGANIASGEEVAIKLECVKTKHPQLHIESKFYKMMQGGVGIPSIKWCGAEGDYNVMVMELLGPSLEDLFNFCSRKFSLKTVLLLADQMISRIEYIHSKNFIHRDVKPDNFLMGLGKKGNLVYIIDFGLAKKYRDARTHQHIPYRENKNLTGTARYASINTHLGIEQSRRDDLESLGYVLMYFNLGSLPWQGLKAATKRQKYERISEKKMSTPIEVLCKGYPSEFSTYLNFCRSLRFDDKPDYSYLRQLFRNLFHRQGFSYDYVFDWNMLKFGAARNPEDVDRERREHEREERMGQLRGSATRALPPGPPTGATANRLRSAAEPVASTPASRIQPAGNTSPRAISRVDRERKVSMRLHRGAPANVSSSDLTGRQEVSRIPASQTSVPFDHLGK

DAPK1 (human) = DAPK1 (human) (UniProt P53355)
FLT1 (human) = FLT1 (human) (UniProt P17948)
FLT3 (human) = FLT3 (human) (UniProt P36888)
GSG2 (human) = GSG2 (human) (UniProt Q8TF76)
HIPK4 (human) = HIPK4 (human) (UniProt Q8NE63)
IGF1R (human) = IGF1R (human) (UniProt P08069)
ITK (human) = ITK (human) (UniProt Q08881)
ITK (human), sequence (Q08881 whole entry, looked up): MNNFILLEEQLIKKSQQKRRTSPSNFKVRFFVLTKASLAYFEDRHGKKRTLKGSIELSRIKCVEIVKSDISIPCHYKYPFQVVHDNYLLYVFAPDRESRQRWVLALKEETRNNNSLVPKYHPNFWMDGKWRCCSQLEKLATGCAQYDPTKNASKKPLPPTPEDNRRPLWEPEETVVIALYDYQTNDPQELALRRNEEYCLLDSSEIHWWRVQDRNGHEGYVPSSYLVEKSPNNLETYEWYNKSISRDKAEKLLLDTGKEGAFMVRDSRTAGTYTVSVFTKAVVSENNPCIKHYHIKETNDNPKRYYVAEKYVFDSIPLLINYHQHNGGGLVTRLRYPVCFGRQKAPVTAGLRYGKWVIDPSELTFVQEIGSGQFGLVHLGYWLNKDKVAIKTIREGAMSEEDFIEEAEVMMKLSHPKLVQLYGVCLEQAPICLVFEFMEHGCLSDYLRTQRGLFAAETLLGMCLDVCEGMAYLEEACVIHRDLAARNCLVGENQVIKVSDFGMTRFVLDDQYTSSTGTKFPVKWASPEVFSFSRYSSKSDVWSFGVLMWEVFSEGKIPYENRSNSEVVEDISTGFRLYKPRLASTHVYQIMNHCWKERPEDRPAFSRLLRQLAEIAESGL

MAP3K14 (human) = MAP3K14 (human) (UniProt Q99558)
MAP3K3 (human) = MAP3K3 (human) (UniProt Q99759)
MAP3K3 (human), sequence (Q99759 whole entry, looked up): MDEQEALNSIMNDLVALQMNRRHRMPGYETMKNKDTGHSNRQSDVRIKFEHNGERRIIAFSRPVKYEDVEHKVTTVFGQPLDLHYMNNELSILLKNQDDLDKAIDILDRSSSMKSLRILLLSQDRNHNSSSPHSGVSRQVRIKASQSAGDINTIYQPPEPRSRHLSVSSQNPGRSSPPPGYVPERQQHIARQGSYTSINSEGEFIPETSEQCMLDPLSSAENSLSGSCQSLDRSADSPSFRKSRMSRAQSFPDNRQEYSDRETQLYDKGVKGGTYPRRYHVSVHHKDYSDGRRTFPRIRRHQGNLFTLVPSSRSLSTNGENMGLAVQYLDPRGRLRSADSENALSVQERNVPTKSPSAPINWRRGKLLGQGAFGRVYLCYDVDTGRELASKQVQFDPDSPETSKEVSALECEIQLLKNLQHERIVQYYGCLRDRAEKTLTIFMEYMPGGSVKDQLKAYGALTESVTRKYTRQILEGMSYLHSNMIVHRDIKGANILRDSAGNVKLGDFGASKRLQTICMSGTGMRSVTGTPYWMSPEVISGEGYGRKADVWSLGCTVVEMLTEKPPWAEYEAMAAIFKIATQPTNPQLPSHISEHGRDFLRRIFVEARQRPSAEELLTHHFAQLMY

MAP3K9 (human) = MAP3K9 (human) (UniProt P80192)
MAPKAPK2 (human) = MAPKAPK2 (human) (UniProt P49137)
MAPKAPK2 (human), sequence (P49137 whole entry, looked up): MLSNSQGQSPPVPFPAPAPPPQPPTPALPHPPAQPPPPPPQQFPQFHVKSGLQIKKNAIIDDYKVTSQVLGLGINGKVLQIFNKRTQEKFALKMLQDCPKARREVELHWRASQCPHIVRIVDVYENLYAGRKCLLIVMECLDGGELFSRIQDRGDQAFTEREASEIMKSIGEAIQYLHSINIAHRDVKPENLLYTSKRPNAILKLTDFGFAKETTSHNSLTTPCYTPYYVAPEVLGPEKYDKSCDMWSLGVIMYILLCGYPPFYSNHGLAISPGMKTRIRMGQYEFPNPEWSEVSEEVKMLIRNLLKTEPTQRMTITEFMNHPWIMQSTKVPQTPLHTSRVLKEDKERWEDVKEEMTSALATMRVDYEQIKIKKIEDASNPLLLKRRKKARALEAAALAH

MYO3B (human) = MYO3B (human) (UniProt Q8WXR4)
NLK (human) = NLK (human) (UniProt Q9UBE8)
NTRK2 (human) = NTRK2 (human) (UniProt Q16620)
NTRK2 (human), sequence (Q16620 whole entry, looked up): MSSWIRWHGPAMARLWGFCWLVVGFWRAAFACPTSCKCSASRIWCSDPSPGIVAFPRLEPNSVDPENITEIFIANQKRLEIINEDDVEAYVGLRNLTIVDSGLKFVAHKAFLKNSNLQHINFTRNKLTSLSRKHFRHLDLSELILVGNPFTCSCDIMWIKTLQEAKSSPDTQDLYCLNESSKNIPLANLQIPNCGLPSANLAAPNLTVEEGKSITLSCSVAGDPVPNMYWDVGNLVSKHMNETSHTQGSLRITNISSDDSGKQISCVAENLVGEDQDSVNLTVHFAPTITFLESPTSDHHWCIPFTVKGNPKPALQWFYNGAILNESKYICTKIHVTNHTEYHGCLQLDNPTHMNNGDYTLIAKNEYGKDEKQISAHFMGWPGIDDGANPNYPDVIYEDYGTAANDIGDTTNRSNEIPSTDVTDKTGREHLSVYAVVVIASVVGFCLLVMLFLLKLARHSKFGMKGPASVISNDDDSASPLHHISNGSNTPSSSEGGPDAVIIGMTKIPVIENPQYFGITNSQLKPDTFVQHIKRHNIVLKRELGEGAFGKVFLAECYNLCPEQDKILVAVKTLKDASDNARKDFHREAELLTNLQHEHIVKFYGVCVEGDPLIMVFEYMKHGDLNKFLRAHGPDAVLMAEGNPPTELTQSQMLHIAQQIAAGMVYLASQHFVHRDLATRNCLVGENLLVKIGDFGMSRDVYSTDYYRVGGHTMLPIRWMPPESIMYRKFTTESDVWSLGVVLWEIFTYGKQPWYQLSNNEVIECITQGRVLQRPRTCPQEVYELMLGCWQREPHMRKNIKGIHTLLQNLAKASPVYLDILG

PAK1 (human) = PAK1 (human) (UniProt Q13153)
PLK2 (human) = PLK2 (human) (UniProt Q9NYY3)
PLK3 (human) = PLK3 (human) (UniProt Q9H4B4)
PRKCE (human) = PRKCE (human) (UniProt Q02156)
PRKCE (human), sequence (Q02156 whole entry, looked up): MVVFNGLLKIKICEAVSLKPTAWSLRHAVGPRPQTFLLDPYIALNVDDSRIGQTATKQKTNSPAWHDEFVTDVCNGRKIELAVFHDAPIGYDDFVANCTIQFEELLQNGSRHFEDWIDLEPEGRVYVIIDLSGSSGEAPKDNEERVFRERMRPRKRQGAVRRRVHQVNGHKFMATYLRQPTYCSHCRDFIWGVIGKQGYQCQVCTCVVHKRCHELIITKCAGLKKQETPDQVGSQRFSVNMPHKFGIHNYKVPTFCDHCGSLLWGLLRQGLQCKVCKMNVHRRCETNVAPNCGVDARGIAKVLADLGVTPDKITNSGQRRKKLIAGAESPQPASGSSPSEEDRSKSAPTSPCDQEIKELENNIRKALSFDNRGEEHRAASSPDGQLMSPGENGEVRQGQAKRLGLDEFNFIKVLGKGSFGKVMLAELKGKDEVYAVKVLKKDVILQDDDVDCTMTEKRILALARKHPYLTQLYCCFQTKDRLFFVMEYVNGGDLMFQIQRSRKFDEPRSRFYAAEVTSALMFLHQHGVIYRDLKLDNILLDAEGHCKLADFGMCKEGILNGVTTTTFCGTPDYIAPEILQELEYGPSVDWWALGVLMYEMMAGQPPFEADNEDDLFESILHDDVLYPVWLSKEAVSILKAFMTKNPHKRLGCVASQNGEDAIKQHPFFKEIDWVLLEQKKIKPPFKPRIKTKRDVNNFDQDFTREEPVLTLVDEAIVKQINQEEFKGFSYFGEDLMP

PTK2B (human) = PTK2B (human) (UniProt Q14289)
RPS6KB2 (human) = RPS6KB2 (human) (UniProt Q9UBS0)
SGK3 (human) = SGK3 (human) (UniProt Q96BR1)
SRPK2 (human) = SRPK2 (human) (UniProt P78362)
STK33 (human) = STK33 (human) (UniProt Q9BYT3)
STK38 (human) = STK38 (human) (UniProt Q15208)
STK4 (human) = STK4 (human) (UniProt Q13043)
SYK (human) = SYK (human) (UniProt P43405)
TAOK3 (human) = TAOK3 (human) (UniProt Q9H2K8)
TXK (human) = TXK (human) (UniProt P42681)
[1] = molecular target: TYK2 JH1 catalytic (human) (UniProt P29597)
WNK2 (human) = WNK2 (human) (UniProt Q9Y3S1)
YES1 (human) = YES1 (human) (UniProt P07947)
YES1 (human), sequence (P07947 whole entry, looked up): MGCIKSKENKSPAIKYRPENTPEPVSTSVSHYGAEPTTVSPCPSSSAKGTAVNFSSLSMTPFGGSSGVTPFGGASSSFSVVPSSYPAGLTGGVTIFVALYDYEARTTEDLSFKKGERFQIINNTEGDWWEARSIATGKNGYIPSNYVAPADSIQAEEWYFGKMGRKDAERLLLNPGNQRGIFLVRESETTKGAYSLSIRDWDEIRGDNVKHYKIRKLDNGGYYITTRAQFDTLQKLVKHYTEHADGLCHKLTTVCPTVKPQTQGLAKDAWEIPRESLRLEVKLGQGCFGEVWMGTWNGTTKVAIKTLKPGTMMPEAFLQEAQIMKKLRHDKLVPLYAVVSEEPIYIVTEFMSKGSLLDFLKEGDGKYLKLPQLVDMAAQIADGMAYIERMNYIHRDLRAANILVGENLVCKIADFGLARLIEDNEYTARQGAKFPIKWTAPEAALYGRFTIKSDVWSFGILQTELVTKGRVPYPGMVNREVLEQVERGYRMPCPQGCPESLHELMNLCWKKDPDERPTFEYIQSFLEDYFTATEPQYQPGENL

ZAP70 (human) = ZAP70 (human) (UniProt P43403)
HIPK2 (human) = HIPK2 (human) (UniProt Q9H2X6)
MAP3K5 (human) = MAP3K5 (human) (UniProt Q99683)
TEK (human) = TEK (human) (UniProt Q02763)

AURKB (human), sequence (Q96GD4 whole entry, looked up): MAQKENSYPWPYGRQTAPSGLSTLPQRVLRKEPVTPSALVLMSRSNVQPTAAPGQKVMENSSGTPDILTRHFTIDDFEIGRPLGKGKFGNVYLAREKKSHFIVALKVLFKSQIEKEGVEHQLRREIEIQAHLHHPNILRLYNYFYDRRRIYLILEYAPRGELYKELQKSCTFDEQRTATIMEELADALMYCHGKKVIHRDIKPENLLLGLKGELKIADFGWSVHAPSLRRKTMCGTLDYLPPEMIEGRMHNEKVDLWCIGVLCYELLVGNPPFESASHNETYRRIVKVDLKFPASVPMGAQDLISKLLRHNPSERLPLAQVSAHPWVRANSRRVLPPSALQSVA

CCOC(=O)c1c(C)[nH]c(/C=C2\C(=O)Nc3ccccc32)c1C
residual activity (AURKB (human)): 67.3%
residual activity (AXL (human)): 88.9%
residual activity (CAMK1G (human)): 98.2%
residual activity (CDK9 CCNK (human)): 97.5%
residual activity (CDK9 CCNT1 (human)): 94.7%
residual activity (CLK1 (human)): 98.2%
residual activity (CSNK1E (human)): 73.7%
residual activity (DAPK1 (human)): 100%
residual activity (FLT1 (human)): 79%
residual activity (FLT3 (human)): 13.3%
residual activity (GSG2 (human)): 92.9%
residual activity (HIPK4 (human)): 90.2%
residual activity (IGF1R (human)): 79.5%
residual activity (ITK (human)): 86.3%
residual activity (MAP3K14 (human)): 118%
residual activity (MAP3K3 (human)): 92.8%
residual activity (MAP3K9 (human)): 61.6%
residual activity (MAPKAPK2 (human)): 98.6%
residual activity (MYO3B (human)): 74.1%
residual activity (NLK (human)): 94.8%
residual activity (NTRK2 (human)): 66.6%
residual activity (PAK1 (human)): 99.9%
residual activity (PLK2 (human)): 102%
residual activity (PLK3 (human)): 97.5%
residual activity (PRKCE (human)): 98.2%
residual activity (PTK2B (human)): 80.6%
residual activity (RPS6KB2 (human)): 103%
residual activity (SGK3 (human)): 88.1%
residual activity (SRPK2 (human)): 92.3%
residual activity (STK33 (human)): 83.7%
residual activity (STK38 (human)): 101%
residual activity (STK4 (human)): 83.4%
residual activity (SYK (human)): 89.3%
residual activity (TAOK3 (human)): 87.6%
residual activity (TXK (human)): 96.1%
residual activity [1]: 89.9%
residual activity (WNK2 (human)): 100%
residual activity (YES1 (human)): 68.3%
residual activity (ZAP70 (human)): 98.8%

Nc1cccc(-c2cc3c(Oc4cccc(O)c4)ncnc3[nH]2)c1
residual activity (AURKB (human)): 71.9%
residual activity (AXL (human)): 75.9%
residual activity (CAMK1G (human)): 99%
residual activity (CDK9 CCNK (human)): 58.4%
residual activity (CDK9 CCNT1 (human)): 63.2%
residual activity (CLK1 (human)): 93%
residual activity (CSNK1E (human)): 92.9%
residual activity (DAPK1 (human)): 89.1%
residual activity (FLT1 (human)): 8.56%
residual activity (FLT3 (human)): 30.7%
residual activity (GSG2 (human)): 93.3%
residual activity (HIPK2 (human)): 100%
residual activity (HIPK4 (human)): 103%
residual activity (IGF1R (human)): 99.5%
residual activity (ITK (human)): 102%
residual activity (MAP3K14 (human)): 69.6%
residual activity (MAP3K3 (human)): 96.4%
residual activity (MAP3K5 (human)): 94.9%
residual activity (MAP3K9 (human)): 16.2%
residual activity (MAPKAPK2 (human)): 108%
residual activity (NLK (human)): 87.7%
residual activity (NTRK2 (human)): 95.5%
residual activity (PAK1 (human)): 88%
residual activity (PLK2 (human)): 106%
residual activity (PLK3 (human)): 95.7%
residual activity (PRKCE (human)): 97.4%
residual activity (PTK2B (human)): 65.6%
residual activity (RPS6KB2 (human)): 94.7%
residual activity (SGK3 (human)): 117%
residual activity (SRPK2 (human)): 99.1%
residual activity (STK33 (human)): 80.3%
residual activity (STK4 (human)): 94.4%
residual activity (SYK (human)): 36.1%
residual activity (TAOK3 (human)): 93.5%
residual activity (TEK (human)): 60.7%
residual activity (TXK (human)): 24.5%
residual activity [1]: 36.9%
residual activity (WNK2 (human)): 103%
residual activity (YES1 (human)): 6.05%
residual activity (ZAP70 (human)): 97.5%

CC(=O)c1ccc(N2CCOCC2)cc1O
residual activity (AURKB (human)): 91.4%
residual activity (AXL (human)): 96.3%
residual activity (CAMK1G (human)): 101%
residual activity (CDK9 CCNK (human)): 106%
residual activity (CDK9 CCNT1 (human)): 100%
residual activity (CLK1 (human)): 110%
residual activity (CSNK1E (human)): 96.2%
residual activity (DAPK1 (human)): 92.8%
residual activity (FLT1 (human)): 97.1%
residual activity (FLT3 (human)): 102%
residual activity (GSG2 (human)): 79.6%
residual activity (HIPK2 (human)): 106%
residual activity (HIPK4 (human)): 101%
residual activity (IGF1R (human)): 106%
residual activity (ITK (human)): 97%
residual activity (MAP3K14 (human)): 82.6%
residual activity (MAP3K3 (human)): 108%
residual activity (MAP3K5 (human)): 99.4%
residual activity (MAP3K9 (human)): 112%
residual activity (MAPKAPK2 (human)): 103%
residual activity (NLK (human)): 95.6%
residual activity (NTRK2 (human)): 92.1%
residual activity (PAK1 (human)): 93.7%
residual activity (PLK2 (human)): 104%
residual activity (PLK3 (human)): 98.1%
residual activity (PRKCE (human)): 93.4%
residual activity (PTK2B (human)): 102%
residual activity (RPS6KB2 (human)): 101%
residual activity (SGK3 (human)): 105%
residual activity (SRPK2 (human)): 98.6%
residual activity (STK33 (human)): 109%
residual activity (STK4 (human)): 102%
residual activity (SYK (human)): 92.6%
residual activity (TAOK3 (human)): 98.4%
residual activity (TEK (human)): 101%
residual activity (TXK (human)): 103%
residual activity [1]: 110%
residual activity (WNK2 (human)): 101%
residual activity (YES1 (human)): 100%
residual activity (ZAP70 (human)): 99.5%
